Each structure is given as a SMILES string.

In turn, `Cc1oc(-c2ccccc2)nc1COc1ccc(CO/N=C(\CC(N)=O)c2ccccc2)cc1` [Example 111, E-3-[4-(5-methyl-2-phenyl-4-oxazolylmethoxy)benzyloxyimino]-3-phenylpropanamide] had a melting point of 164 to 165 °C.
To `Cc1oc(-c2ccccc2)nc1COc1ccc(CO/N=C(\CCC(=O)O)c2cccnc2)cc1` [Example 70, E-4-[4-(5-methyl-2-phenyl-4-oxazolylmethoxy)benzyloxyimino]-4-(3-pyridyl)butyric acid] belongs 158 to 159 °C; to `Cc1oc(-c2ccccc2)nc1COc1ccc(CO/N=C(/C(=O)O)c2cccnc2)cc1` [Example 37, E-2-[4-(5-methyl-2-phenyl-4-oxazolylmethoxy)benzyloxyimino]-2-(3-pyridyl)acetic acid], 130 to 131 °C (dec.); to `Cc1oc(-c2ccccc2)nc1COc1ccc(CO/N=C(/CCCCCCC(=O)O)c2ccc(Cl)cc2)cc1` [Example 124, Z-8-(4-chlorophenyl)-8-[4-(5-methyl-2-phenyl-4-oxazolylmethoxy)benzyloxyimino]octanoic acid], 54 to 57 °C.
To `O=C(O)CC/C(=N\OCc1ccc(OCc2cn3ccccc3n2)cc1)c1ccccc1` [Example 101, E-4-[4-(imidazo[1,2-a]pyridin-2-ylmethoxy)benzyloxyimino]-4-phenylbutyric acid] belongs 180 to 182 °C.
`CCOC(=O)/C(=N/OCc1ccc(OCc2nc(-c3ccccc3)oc2C)cc1)c1ccc(Br)cc1` [Example 22, ethyl E-2-(4-bromophenyl)-2-[4-(5-methyl-2-phenyl-4-oxazolylmethoxy)benzyloxyimino]acetate] showed a melting point of 105 to 106 °C.
As for `Cc1oc(-c2ccccc2)nc1COc1ccc(CO/N=C(\CCCCCCCC(=O)O)c2ccccc2)cc1` [Example 73, E-9-[4-(5-methyl-2-phenyl-4-oxazolylmethoxy)benzyloxyimino]-9-phenylnonanoic acid], the figure is 67 to 68 °C; as for `Cc1oc(-c2ccccc2)nc1COc1ccc(CO/N=C(\CCCCCC(=O)O)c2ccccc2)cc1` [Example 115, E-7-[4-(5-methyl-2-phenyl-4-oxazolylmethoxy)benzyloxyimino]-7-phenylheptanoic acid], 84 to 85 °C.
To `Cc1oc(-c2ccccc2)nc1COc1ccc(CO/N=C(/CCC(=O)O)c2ccco2)cc1` [Example 68, Z-4-(2-furyl)-4-[4-(5-methyl-2-phenyl-4-oxazolylmethoxy)benzyloxyimino]butyric acid] belongs 131 to 133 °C.
As for `CN(CCOc1ccc(CO/N=C(\C(=O)O)c2ccccc2)cc1)c1ccccn1` [Example 3, Z-2-[4-[2-(methyl-2-pyridylamino)ethoxy]benzyloxyimino]-2-phenylacetic acid], the figure is 93 to 94 °C; as for `Cc1oc(-c2ccccc2)nc1COc1cccc(CO/N=C(\CCC(=O)O)c2ccccc2)c1` [Example 77, E-4-[3-(5-methyl-2-phenyl-4-oxazolylmethoxy)benzyloxyimino]-4-phenylbutyric acid], 108 to 109 °C; as for `Cc1oc(-c2ccccc2)nc1COc1ccc(CO/N=C(\C(=O)O)c2ccc(-c3ccsc3)cc2)cc1` [Example 30, Z-2-[4-(5-methyl-2-phenyl-4-oxazolylmethoxy)benzyloxyimino]-2-[4-(3-thienyl)phenyl]acetic acid], 205 to 206 °C (dec.).
Turning to `Cc1oc(-c2ccccc2)nc1COc1ccc(CO/N=C(/c2ccccc2)C(C)(C)C(=O)O)cc1` [Example 110, Z-2,2-dimethyl-3-[4-(5-methyl-2-phenyl-4-oxazolylmethoxy)benzyloxyimino]-3-phenylpropionic acid], the melting point is 142 to 143 °C (dec.).
To `Cc1oc(-c2ccccc2)nc1COc1ccc(CON=C(CC(=O)O)c2ccccc2)cc1` [Example 53, 3-[4-(5-methyl-2-phenyl-4-oxazolylmethoxy)benzyloxyimino]-3-phenylpropionic acid] belongs 107 to 108 °C; to `Cc1oc(-c2ccccc2)nc1COc1ccc(CO/N=C(\C(=O)O)c2cccc(Oc3ccccc3)c2)cc1` [Example 13, Z-2-[4-(5-methyl-2-phenyl-4-oxazolylmethoxy)benzyloxyimino]-2-(3-phenoxyphenyl)acetic acid], 173 to 174 °C (dec.).
As for `Cc1oc(-c2cccs2)nc1COc1ccc(CO/N=C(\CCC(=O)O)c2ccccc2)cc1` [Example 97, E-4-[4-[5-methyl-2-(2-thienyl)-4-oxazolylmethoxy]benzyloxyimino]-4-phenylbutyric acid], the figure is 142 to 143 °C.
As for `O=C(O)CCCC/C(=N\OCc1ccc(OCc2nc(-c3ccccc3)no2)cc1)c1ccccc1` [Example 138, E-6-phenyl-6-[4-(3-phenyl-1,2,4-oxadiazol-5-ylmethoxy)benzyloxyimino]hexanoic acid], the figure is 91 to 92 °C; as for `Cc1oc(-c2ccccc2)nc1COc1ccc(CO/N=C(\C(=O)O)c2cccnc2)cc1` [Example 35, Z-2-[4-(5-methyl-2-phenyl-4-oxazolylmethoxy)benzyloxyimino]-2-(3-pyridyl)acetic acid], 156 to 157 °C (dec.).
Consider `Cc1oc(-c2ccccc2)nc1COc1ccc(CO/N=C(/CCCCCCC(=O)O)c2ccc(F)cc2)cc1` [Example 126, Z-8-(4-fluorophenyl)-8-[4-(5-methyl-2-phenyl-4-oxazolylmethoxy)benzyloxyimino]octanoic acid], for which the melting point fell in the range of 56 to 57 °C.
As for `O=C(O)CC/C(=N\OCc1ccc(OCc2cc(-c3ccccc3)no2)cc1)c1ccccc1` [Example 87, E-4-phenyl-4-[4-(3-phenyl-5-isoxazolylmethoxy)benzyloxyimino]butyric acid], the figure is 96 to 97 °C; as for `O=C(O)CC/C(=N\OCc1ccc(OCc2ccccc2)cc1)c1ccccc1` [Example 98, E-4-(4-benzyloxybenzyloxyimino)-4-phenylbutyric acid], 86 to 87 °C; as for `Cc1oc(-c2cccs2)nc1COc1ccc(CO/N=C(\CCCCC(=O)O)c2ccccc2)cc1` [Example 135, E-6-[4-[5-methyl-2-(2-thienyl)-4-oxazolylmethoxy]benzyloxyimino]-6-phenylhexanoic acid], 101 to 102 °C.
To `Cc1oc(-c2ccccc2)nc1COc1ccc(CO/N=C(\CCC(=O)O)c2ccncc2)cc1` [Example 71, E-4-[4-(5-methyl-2-phenyl-4-oxazolylmethoxy)benzyloxyimino]-4-(4-pyridyl)butyric acid] belongs 161 to 162 °C; to `O=C(O)CC/C(=N\OCc1ccc(OCc2ccc3ccccc3n2)cc1)c1ccccc1` [Example 104, E-4-phenyl-4-[4-(2-quinolinylmethoxy)benzyloxyimino]butyric acid], 133 to 134 °C; to `Cc1oc(-c2ccccc2)nc1COc1ccc(CO/N=C(\C(=O)O)c2ccc(/C=C/c3ccccc3)cc2)cc1` [Example 31, Z-2-[4-(5-methyl-2-phenyl-4-oxazolylmethoxy)benzyloxyimino]-2-[4-(E-2-phenylethenyl)phenyl]acetic acid], 194 to 195 °C (dec.).
To `O=C(O)CC/C(=N\OCc1ccc(OCc2cn3c(Cl)cccc3n2)cc1)c1ccccc1` [Example 55, E-4-[4-(5-chloroimidazo[1,2-a]pyridin-2-ylmethoxy)benzyloxyimino]-4-phenylbutyric acid] belongs 160 to 161 °C; to `COc1cc(CO/N=C(\CCC(=O)O)c2ccccc2)ccc1OCc1nc(-c2ccco2)oc1C` [Example 148, E-4-[4-[2-(2-furyl)-5-methyl-4-oxazolylmethoxy]-3-methoxybenzyloxyimino]-4-phenylbutyric acid], 131 to 132 °C.
For `Cc1oc(-c2ccccc2)nc1CCOc1ccc(CO/N=C(\CCC(=O)O)c2ccccc2)cc1` [Example 50, E-4-[4-[2-(5-methyl-2-phenyl-4-oxazolyl)ethoxy]benzyloxyimino]-4-phenylbutyric acid], the melting point was in the range of 106 to 107 °C.
Regarding `Cc1sc(-c2ccccc2)nc1COc1ccc(CO/N=C(\CCC(=O)O)c2ccccc2)cc1` [Example 91, E-4-[4-(5-methyl-2-phenyl-4-thiazolylmethoxy)benzyloxyimino]-4-phenylbutyric acid], the melting point is 99 to 100 °C.
Compound `COC(=O)CC/C(=N\OCc1ccc(OCc2nc(-c3ccccc3)oc2C)c(OC)c1)c1ccccc1` [Example 149, methyl E-4-[3-methoxy-4-(5-methyl-2-phenyl-4-oxazolylmethoxy)benzyloxyimino]-4-phenylbutyrate] returned a melting point of 112 to 114 °C.
To `O=C(O)CC/C(=N\OCc1ccc(OCc2csc(-c3ccccc3)n2)cc1)c1ccccc1` [Example 108, E-4-phenyl-4-[4-(2-phenyl-4-thiazolylmethoxy)benzyloxyimino]butyric acid] belongs 104 to 105 °C.
To `COc1cc(CO/N=C(\CCC(=O)O)c2ccccc2)cc(OC)c1OCc1nc(-c2ccccc2)oc1C` [Example 146, E-4-[3,5-dimethoxy-4-(5-methyl-2-phenyl-4-oxazolylmethoxy)benzyloxyimino]-4-phenylbutyric acid] belongs 89 to 90 °C.
To `COc1ccc(/C(=N/OCc2ccc(OCc3nc(-c4ccccc4)oc3C)cc2)C(=O)O)cc1` [Example 24, Z-2-(4-methoxyphenyl)-2-[4-(5-methyl-2-phenyl-4-oxazolylmethoxy)benzyloxyimino]acetic acid] belongs 183 to 184 °C.
Turning to `Cc1oc(-c2ccccc2)nc1COc1ccc(CO/N=C(\CCCC(=O)O)c2ccccc2)cc1` [Example 18, E-5-[4-(5-methyl-2-phenyl-4-oxazolylmethoxy)benzyloxyimino]-5-phenylpentanoic acid], the melting point is 129 to 130 °C.
To `Cc1oc(-c2cccs2)nc1COc1ccc(CO/N=C(\CCCCCCC(=O)O)c2ccccc2)cc1` [Example 130, E-8-[4-[5-methyl-2-(2-thienyl)-4-oxazolylmethoxy]benzyloxyimino]-8-phenyloctanoic acid] belongs 106 to 108 °C.
As for `CN(CCOc1ccc(CO/N=C(\CCC(=O)O)c2ccccc2)cc1)c1ncccn1` [Example 51, E-4-[4-[2-(methyl-2-pyrimidylamino)ethoxy]benzyloxyimino]-4-phenylbutyric acid], the figure is 72 to 73 °C.

By melting point is commonly meant the temperature of the solid-liquid transition.

The record behind these values is patent US6924300B2, “Oxyiminoalkanoic acid derivatives” (Takeda Chemical Industries, Ltd., priority 1998, dated 2005).
